# Assay results: US20070112015A1, “Substituted dihydropyridines and methods of use” (ChemoCentryx, Inc., priority 2005, published 2007)
# Molecular target: T1, human C5a receptor (Homo sapiens, UniProt P21730)
# T1 construct: expressed in transfected cells; alternatively isolated human neutrophils (endogenous receptor)
# T1 sequence (P21730 1-350): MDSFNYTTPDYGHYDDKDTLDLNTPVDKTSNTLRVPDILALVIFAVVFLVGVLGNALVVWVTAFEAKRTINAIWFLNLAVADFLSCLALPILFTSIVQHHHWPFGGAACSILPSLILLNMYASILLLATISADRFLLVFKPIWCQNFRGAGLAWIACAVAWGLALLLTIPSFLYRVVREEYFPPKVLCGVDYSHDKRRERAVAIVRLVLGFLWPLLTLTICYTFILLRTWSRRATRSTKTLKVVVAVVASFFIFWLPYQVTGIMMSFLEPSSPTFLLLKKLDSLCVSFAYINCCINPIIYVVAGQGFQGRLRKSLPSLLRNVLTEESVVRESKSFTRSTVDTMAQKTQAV
# Assay: Inhibition of C5aR ligand binding (125I labeled C5a)
# Conditions: 125I labeled C5a binding to C5aR expressing cells (L1.2 C5aR cells or neutrophils)
# Experimental: L1.2 cells (ATCC #HB-12624) were transfected with a mammalian expression vector constitutively expressing the human C5a receptor (Genbank accession # NM_001736). A stable cell line was produced by selection with G418 for the co-expressed resistance marker. These cells were cultured as a suspension in RPMI-1640 medium supplemented with 2 mM L-glutamine, 1.5 g/L sodium bicarbonate, 4.5 g/L glucose, 10 mM HEPES, 1 mM sodium pyruvate, and 10% FBS. Cells were grown under 5% CO2/95% air, 100% humidity at 37° C. and subcultured twice weekly at 1:6 (cells were cultured at a density range of 1×10^5 to 2×10^6 cells/mL) and harvested at 1×10^6 cells/mL. L1.2 C5aR cells express C5a receptor and can be used in C5aR ligand binding and functional assays.
# Neutrophils were isolated from fresh human blood using density separation and centrifigation. Briefly, whole blood is incubated with equal parts 3% dextran and allowed to separate for 45 minutes. After separation, the top layer is then layered on top of 15 mls of Ficoll (15 mls of Ficoll for every 30 mls of blood suspension) and centrifuged for 30 minutes at 400×g with no brake. The pellet at the bottom of the tube is then isolated and resuspended into PharmLyse RBC Lysis Buffer (BD Biosciences, San Jose, Calif.) after which the sample is again centrifuged for 10 minutes at 400×g with brake. The remaining cell pellet is resuspended as appropriate and consists of isolated neutrophils.
# C5aR expressing cells were centrifuged and resuspended in assay buffer (20 mM HEPES pH 7.1, 140 mM NaCl, 1 mM CaCl2, 5 mM MgCl2, and with 0.2% bovine serum albumin) to a concentration of 5×10^6 cells/mL for L1.2 C5aR cells and […]. Binding assays were set up as follows. 0.1 mL of cells (5×10^5 L1.2 C5aR cells/well or 1×10^5 neutrophils) was added to the assay plates containing the compounds, giving a final concentration of ˜2-10 μM each compound for screening (or part of a dose response for compound IC50 determinations). Then 0.1 mL of ^125I labeled C5a (obtained from Perkin Elmer Life Sciences, Boston, Mass.) diluted in assay buffer to a final concentration of ˜50 pM, yielding ˜30,000 cpm per well, was added (using ^125I labeled C5a with L1.2 C5aR cells and with neutrophils), the plates sealed and incubated for approximately 3 hours at 4° C. on a shaker platform. Reactions were aspirated onto GF/B glass filters pre-soaked in 0.3% polyethyleneimine (PEI) solution, on a vacuum cell harvester (Packard Instruments; Meriden, Conn.). Scintillation fluid (40 μl; Microscint 20, Packard Instruments) was added to each well, the plates were sealed and radioactivity measured in a Topcount scintillation counter (Packard Instruments). Control wells containing either diluent only (for total counts) or excess C5a (1 µg/mL, for non-specific binding) were used to calculate the percent of total inhibition for compound. The computer program Prism from GraphPad, Inc. (San Diego, Calif.) was used to calculate IC50 values. IC50 values are those concentrations required to reduce the binding of radiolabeled C5a to the receptor by 50%. (For further descriptions of ligand binding and other functional assays, see Dairaghi, et al., J. Biol. Chem. 274:21569-21574 (1999), Penfold, et al., Proc. Natl. Acad. Sci. USA. 96:9839-9844 (1999), and Dairaghi, et al, J. Biol. Chem. 272:28206-28209 (1997)).
# To evaluate small organic molecules that prevent the C5a receptor from binding ligand, an assay was employed that detected radioactive ligand (i.e, C5a) binding to cells expressing C5aR on the cell surface (for example, L1.2 C5AR cells or isolated human neutrophils). For compounds that inhibited binding, whether competitive or not, fewer radioactive counts are observed when compared to uninhibited controls.
# Equal numbers of cells were added to each well in the plate. The cells were then incubated with radiolabeled C5a. Unbound ligand was removed by washing the cells, and bound ligand was determined by quantifying radioactive counts. […]
row,IC50 [nM],Compound
1,< 1000,Cc1cc(C)c(C2CC(=O)C3=C(C2)NC(C2CC2)=C(C(=O)OC2CCCC2)C3c2cccc(O)c2)c(C)c1 (stereo not shown) [Compound 1.001]
2,< 1000,CC1=C(C(=O)OC2CCCC2)C(c2cccc(O)c2)C2=C(CC(c3ccc(C)c(F)c3)CC2=O)N1 (stereo not shown) [Compound 1.002]
3,< 1000,CC1=C(C(=O)OC2CCCC2)C(c2cccc(O)c2)C2=C(CC(c3ccc(C(F)(F)F)cc3)CC2=O)N1 (stereo not shown) [Compound 1.003]
4,< 1000,CC1=C(C(=O)OC2CCCC2)C(c2cccc(O)c2)C2=C(CC(C3CCCCC3)CC2=O)N1 (stereo not shown) [Compound 1.004]
5,1000 to 10000,CC1=C(C(=O)OC2CCCC2)C(c2cccc(O)c2)C2=C(CC(c3ccc(-c4ccccc4)cc3)CC2=O)N1 (stereo not shown) [Compound 1.005]
6,< 1000,CC1=C(C(=O)OC2CCCC2)C(c2cccc(O)c2)C2=C(CC(c3ccc4ccccc4c3)CC2=O)N1 (stereo not shown) [Compound 1.006]
7,1000 to 10000,CC1=C(C(=O)OC2CCCC2)C(c2cccc(O)c2)C2=C(CN(c3ccccc3)CC2=O)N1 (stereo not shown) [Compound 1.007]
8,< 1000,CCOC(=O)C1=C(CCC2CCCC2)NC2=C(C(=O)CC(c3c(C)cc(C)cc3C)C2)C1c1cccc2[nH]ccc12 (stereo not shown) [Compound 1.008]
9,< 1000,O=C1CC(c2ccc3c(c2)OCO3)CC2=C1C(c1cccc(O)c1)C(C(=O)OC1CCCC1)=C(CC1CCCC1)N2 (stereo not shown) [Compound 1.009]
10,1000 to 10000,CC(C)C1=C(C(=O)OC2CCCC2)C(c2cccc(O)c2)C2=C(CC(c3c(Cl)cncc3Cl)CC2=O)N1 (stereo not shown) [Compound 1.010]
